Source: patent US20210062178A1, “NOVEL XYLOSE ISOMERASE GENE AND POLYPEPTIDE AND USES THEREOF” (The Regents of the University of California, priority 2019, published 2021)

Tested on: new D-xylose isomerase (XI) 8454_2 from the gut of Odontotaenius disjunctus, SEQ ID NO: 2
Assay: Enzymatic activity of xylose isomerase in crude cell extracts, coupled sorbitol dehydrogenase (SDH) assay, NADH depletion at 340 nm
Type: biochemical
Procedure: This clone was then was cultivated in liquid medium containing xylose as the sole carbon source in parallel with an identical clone carrying the same metabolic pathway, but instead expressing a XI from Piromyces sp (opt.PiXI). Opt.PiXI is a codon-optimized version of the XI gene from Piromyces sp.
Specific enzymatic activity was measured using a coupled enzyme (sorbitol dehydrogenase—SDH) that converts the product of XI (xylulose) into xylitol. In this process, for each molecule of xylose converted to xylulose, a molecule of NADH is converted in NAD+. NADH depletion is quantified by spectrophotometry at an optical density of 340 nm, and XI activity is stoichiometrically inferred. For the enzymatic activity, crude cell extracts were prepared using the same conditions for both strains (carrying 8454_2 or opt.PiXI genes) and immediately used.

## OC1OC[C@@H](O)[C@H](O)[C@H]1O (stereo partly drawn) [D-xylose]
Compared with XI from Piromyces sp. (opt.PiXI) under identical biological backgrounds and experimental conditions
  isomerization maximal velocity (Vmax) relative to the XI from Piromyces sp.: three times higher
New XI, expressed in S. cerevisiae
  Km: 19 mM
